Experiments:
CA-IX = target: T1, CA-IX (Homo sapiens, UniProt Q16790); experiment: Cellular binding assessment by flow cytometry on CA-IX expressing HT-29 cells; settings: 1 hour 30 min on ice, read-out: CA-IX receptor affinity (KD, to HT-29 cells)
T1 construct: host or cells: HT-29 human colorectal adenocarcinoma cells
Protocol: Human colon adenocarcinoma HT-29 cells (ATCC) used for the cellular binding experiments were cultured in McCoy's 5A medium (Sigma-Aldrich), supplemented with 10% HyClone Fetal Clone III (Euroclone), 2 mM L-glutamine (Sigma-Aldrich), 100 IU/mL penicillin, 0.1 mg/mL streptomycin, 0.25 μg/mL amphotericin B (Antibiotic-Antimycotic solution, Life Technologies) and cells were grown at 37° C. in humidified atmosphere enriched with 5% CO2. DPBS without MgCl2 and CaCl2 (Sigma-Aldrich) was used for cell rinsing.
Indeed, by using the anti-human CA-IX antibody MAB2188 (R&D Systems) and the DAKO […], according to the instruction of the datasheet, HT-29 cells were estimated to express about 150,000 CA-IX molecules per cell. Thus, HT-29 cells were used to measure the binding of all compounds to CA-IX, expressed in its physiological environment at the cell-surface. Briefly, HT-29 cells were detached with StemPro® Accutase® Cell Dissociation Reagent (Life Technologies), collected in DPBS and counted. At least 2·10^5 cells were placed in 1.5 mL tubes on ice and resuspended in 50-100 μL of cold FACS buffer (eBioscience™ Flow Cytometry Staining Buffer, Invitrogen) containing scalar concentrations of compounds (compound 1: range 1-5 μM; compounds 2 and 3: range 0-20 μM). After incubation (1 hour and 30 min on ice in the dark), cells were rinsed 3 times in 300 μL of cold FACS buffer by centrifugation (5 min, 4° C., 350 RCF), discarding the supernatant. Cell pellets were then resuspended in 200 μL of cold FACS buffer (or in a suitable volume in order to obtain no more than 1000 recorded events per μL during FACS analysis) and analyzed with the flow cytometer Accuri™ C6 (BD Biosciences). The mean cell-associated fluorescence was plotted against concentration and the dissociation constant at equilibrium (Ko) was inferred by mathematical fitting with GraphPad Prism v.9 software, according to the following equation: […]
where Bmax is the maximum specific binding in the same units as Y. KD is the equilibrium dissociation constant, in the same units as X. NS is the slope of nonspecific binding in Y units divided by X units. Background is the amount of nonspecific binding with no added Compound.
All compounds were analyzed in at least three independent experiments. The calculated KD are summarized in Table III and compared with the one obtained for HF-1.

[1] = Optical characterization (excitation/emission maxima, molar extinction coefficient); type: physicochemical
Protocol: A dual-beam UV-VIS spectrophotometer (Lambda 40, Perkin Elmer) was used to determine the absorbance (Abs) of the compounds of the invention. Emission/excitation (Em/Ex) spectra were carried out on a spectrofluorometer (FluoroLog-3 1IHR-320, Horiba Jobin Yvon) equipped with an F-3018 integrating sphere accessory. The measurements were performed using an excitation wavelength at maximum absorbance of different dyes, and the sample was excited with a 450W Xenon Light Source. Detection was performed by photomultiplier tubes (PMT-NIR) cooled detector or by TBX-04 detector. Dye solutions were carefully prepared to have an absorbance lower than 0.1 (optical densities) to minimize re-absorption phenomena.
The compounds of the invention were characterized in terms of their optical properties in vitro in aqueous medium (i.e., water/PBS pH 7.4) and in a clinical chemistry control serum (Seronorm, Sero S A), mimicking the chemical composition and optical properties of human serum. All solutions were freshly prepared. In particular, the compounds of the invention are characterized by absorption maxima comprised in the range from about 750 nm to 780 nm.
The excitation and emission maxima in PBS and Seronorm and the molar extinction coefficient (E) in water of representative compounds of formula (I) are shown in Table I in comparison with the known CA-IX targeting fluorescent probe named Hypoxyfluor-1 (HF-1, for instance disclosed in Bioconjugate Chem 2018, 29, 3320-3331). […] Moreover, the extinction coefficients were higher than […] for all compounds.

HT-29 colorectal tumor = experiment: In vivo optical imaging of HT-29 tumor bearing mice (tumor-to-background ratio); settings: 1 nmol/mouse intravenous, 24 hours after administration; tumor vs hind limb muscle
Protocol: HT-29 cells were collected and washed once with serum-free medium. Five million HT-29 cells were suspended in 0.1 mL serum-free medium and injected subcutaneously in the right flank of 5 weeks old mice. Tumor development was followed by caliper measurement twice a week, from 7 days after inoculation. Tumor volume was calculated according to the formula: (L*W2)/2, where L and W are the maximum length and width of the tumor.
Optical Imaging experiments on HT-29 tumor bearing animals were performed after administration of HF-1, as reference compound, and compounds 1, 2 and 3, all at a dose of 1 nmol/mouse in an administration volume of 0.1 mL (corresponding to about 5 mL/kg, considering a 20 g-mouse) at an injection rate of about 1 mL/min, by the IVIS Spectrum system when the tumor reached at least 200 mm^3 volume.
For each group, in vivo OI experiments were performed at 0.5, 1, 2, 3, 4, 6 and 24 hours after intravenous administration of the fluorescent compounds. During imaging experiments animals were maintained under gaseous anesthesia. Regions of interest (ROIs) were drawn on the tumor and on a reference background healthy region (hind limb muscle) of the mouse for each fluorescence image at every time point to evaluate signal intensity in the tissues (expressed as Average Radiant Efficiency). The ratio between the fluorescence signal in the tumor and in the background healthy tissue (tumor-to-background ratio, TBR) was then calculated to assess the contrast.
All the compounds of the invention and HF-1 were tested at a dose of 1 nmol/mouse.

SMILES	Kd (CA-IX)	Max Em ([1]; PBS pH 7.4)	Max Ex ([1]; PBS pH 7.4)	Max Em ([1]; Seronorm)	Max Ex ([1]; Seronorm)	in vivo TBR (mean ± SD) (HT-29 colorectal tumor)
CC1(C)C(/C=C/C2=C(Oc3ccc(S(=O)(=O)O)cc3)C(=C/C=C3/N(CCCCS(=O)(=O)O)c4ccc(S(=O)(=O)O)cc4C3(C)C)/CCC2)=[N+](CCCCS(=O)(=O)[O-])c2ccc(C(=O)NCCCCCCCC(=O)Nc3nnc(S(N)(=O)=O)s3)cc21 [Compound 3]	62 ± 4 nM	802 nm	776 nm	810 nm	792 nm	2.2 ± 0.6
CC1(C)C(/C=C/C=C/C=C/C=C2/N(CCCCS(=O)(=O)O)c3ccc(S(=O)(=O)O)cc3C2(C)C)=[N+](CCCCS(=O)(=O)[O-])c2ccc(C(=O)NCCCCCCCC(=O)Nc3nnc(S(N)(=O)=O)s3)cc21 [Compound 2]	54 ± 3 nM	784 nm	754 nm	788 nm	768 nm	5.1 ± 1.9
CC1(C)C(/C=C/C=C/C=C/C=C2/N(CCCCS(=O)(=O)O)c3ccc(C(=O)NC[C@H](O)[C@@H](O)[C@H](O)[C@H](O)CO)cc3C2(C)C)=[N+](CCCCS(=O)(=O)[O-])c2ccc(C(=O)NCCCCCCCC(=O)Nc3nnc(S(N)(=O)=O)s3)cc21 [Compound 1]	68 ± 4 nM	783 nm	752 nm	791 nm	768 nm	5.9 ± 1.2

Source: patent US20250352675A1, “CA-IX TARGETING FLUORESCENT PROBES” (BRACCO IMAGING S.P.A., priority 2022, published 2025)
